We go through one molecule from patent US10130617B2, “Chemical compounds” (AstraZeneca AB, priority 2013, dated 2018).

The assay deals with HCC1428 LTED cells. Description: HCC1428 Long Term Estrogen Deprived (HCC1428 LTED) Xenograft Efficacy Study. Format: in vivo, NSG mice. The note with it: 25 mg/kg once daily p.o., after 28 days of dosing. As to the method:
HCC1428 Long Term Estrogen Deprived (HCC1428 LTED) Xenograft Efficacy Study
After a suitable period of cell culture, HCC1428 LTED cells (1×10^6) were implanted subcutaneously in the hind flank of female immuno-compromised NSG mice (Jackson Labs, USA) that had undergone overectomy. Tumours were measured twice weekly and changes in tumour volume and growth inhibition were determined by bilateral Vernier calliper measurement (length×width) where length was taken to be the longest diameter across the tumour and width the corresponding perpendicular. Tumour volume was calculated using the formula (length×width)×√(length×width)×(π/6). Tumours were measured once weekly after cell implantation until the average size reached 150 mm^3 at which point the mice were placed into randomised test groups, each group containing 10 mice. Treatment with compounds began the day after (day 62 in this study) and once weekly tumour measurement continued. […] Another group of animals was dosed with vehicle p.o. to act as a control.

As to `C[C@@H]1Cc2c([nH]c3ccccc23)[C@@H](c2c(F)cc(/C=C/C(=O)O)cc2F)N1CC(C)(C)F` [Example 1, (E)-3-(3,5-Difluoro-4-((1R,3R)-2-(2-fluoro-2-methylpropyl)-3-methyl-2,3,4,9-tetrahydro-1H-pyrido[3,4-b]indol-1-yl)phenyl)acrylic acid], where the note is “geometric mean values, control grew by 220 mm^3”, the “decrease in tumour size” value is 46 mm^3. For the setting “P<0.001 by unpaired t-test”, the “inhibition of tumour growth” value is 121%.
